Assay results reported in the NIST ThermoML archive (doi:10.1016/j.jct.2017.01.011).
± gives the expanded uncertainty stated by the source.

Test: xn = mol fraction of the nth substance listed
Settings: 100 kPa, Liquid; for speed of sound: Frequency=3 MHz, Single path-length method; for mass density: Vibrating tube method

OCC(O)CO [glycerol] + CCO
Settings | mass density, 283.15 K [kg/m3] | mass density, 293.15 K [kg/m3] | mass density, 303.15 K [kg/m3] | mass density, 313.15 K [kg/m3] | speed of sound, 283.15 K [m/s] | speed of sound, 293.15 K [m/s] | speed of sound, 303.15 K [m/s] | speed of sound, 313.15 K [m/s]
x2 = 0 | 1267 ± 1 | 1261 ± 1 | 1255 ± 1 | 1248 ± 1 | 1942.3 ± 4.1 | 1922.9 ± 4.1 | 1901 ± 4.1 | 1879.3 ± 4.1
x2 = 0.0999 | 1233 ± 1 | 1227 ± 1 | 1220 ± 1 | 1214 ± 1 | 1882.1 ± 4.2 | 1852.5 ± 4.2 | 1827.9 ± 4.2 | 1804.6 ± 4.2
x2 = 0.2002 | 1199 ± 1 | 1193 ± 1 | 1186 ± 1 | 1179 ± 1 | 1804.3 ± 4.2 | 1778.9 ± 4.2 | 1753.4 ± 4.2 | 1729.7 ± 4.2
x2 = 0.2998 | 1161 ± 1 | 1155 ± 1 | 1148 ± 1 | 1140 ± 1 | 1721.8 ± 4.2 | 1696.1 ± 4.2 | 1671.4 ± 4.2 | 1647.2 ± 4.2
x2 = 0.4001 | 1120 ± 1 | 1113 ± 1 | 1106 ± 1 | 1099 ± 1 | 1639.2 ± 4.2 | 1613.3 ± 4.2 | 1587.9 ± 4.2 | 1562.8 ± 4.2
x2 = 0.4993 | 1077 ± 1 | 1069 ± 1 | 1062 ± 1 | 1055 ± 1 | 1557.7 ± 4.2 | 1530.9 ± 4.2 | 1504.6 ± 4.2 | 1478.5 ± 4.2
x2 = 0.6004 | 1029 ± 1 | 1021 ± 1 | 1014 ± 1 | 1006 ± 1 | 1476.1 ± 4.2 | 1448.4 ± 4.2 | 1421.1 ± 4.2 | 1394 ± 4.2
x2 = 0.699 | 978 ± 1 | 970 ± 1 | 963 ± 1 | 955 ± 1 | 1401.7 ± 4.2 | 1372.8 ± 4.2 | 1344.2 ± 4.2 | 1315.8 ± 4.2
x2 = 0.9002 | 862 ± 1 | 854 ± 1 | 845 ± 1 | 837 ± 1 | 1263.5 ± 4.2 | 1231.4 ± 4.2 | 1199.4 ± 4.2 | 1167.7 ± 4.2

OCC(O)CO [glycerol] + O
Settings | mass density, 283.15 K [kg/m3] | mass density, 293.15 K [kg/m3] | mass density, 303.15 K [kg/m3] | mass density, 313.15 K [kg/m3] | speed of sound, 283.15 K [m/s] | speed of sound, 293.15 K [m/s] | speed of sound, 303.15 K [m/s] | speed of sound, 313.15 K [m/s]
x2 = 0 | 1267 ± 1 | 1261 ± 1 | 1255 ± 1 | 1248 ± 1 | 1942.3 ± 6.1 | 1922.9 ± 6.1 | 1901 ± 6.1 | 1879.3 ± 6.1
x2 = 0.1003 | 1261 ± 1 | 1255 ± 1 | 1249 ± 1 | 1243 ± 1 | 1951.7 ± 6.1 | 1922 ± 6.1 | 1897.9 ± 6.1 | 1875.7 ± 6.1
x2 = 0.1998 | 1254 ± 1 | 1248 ± 1 | 1242 ± 1 | 1236 ± 1 | 1940.9 ± 6.1 | 1915.6 ± 6.1 | 1893.3 ± 6.1 | 1871.9 ± 6.1
x2 = 0.3014 | 1246 ± 1 | 1240 ± 1 | 1234 ± 1 | 1228 ± 1 | 1931.5 ± 6.1 | 1909 ± 6.1 | 1888 ± 6.1 | 1867.3 ± 6.1
x2 = 0.4042 | 1236 ± 1 | 1230 ± 1 | 1224 ± 1 | 1218 ± 1 | 1919.2 ± 6 | 1899.3 ± 6 | 1879.7 ± 6 | 1859.8 ± 6
x2 = 0.5011 | 1224 ± 1 | 1218 ± 1 | 1212 ± 1 | 1205 ± 1 | 1903.7 ± 6 | 1886 ± 6 | 1867.9 ± 6 | 1849.3 ± 6
x2 = 0.6011 | 1206 ± 1 | 1201 ± 1 | 1194 ± 1 | 1188 ± 1 | 1879.7 ± 6 | 1864.7 ± 6 | 1848.8 ± 6 | 1832 ± 6
x2 = 0.7003 | 1183 ± 1 | 1177 ± 1 | 1172 ± 1 | 1166 ± 1 | 1841.6 ± 6 | 1830.6 ± 6 | 1818.2 ± 6 | 1804.5 ± 6
x2 = 0.7999 | 1148 ± 1 | 1143 ± 1 | 1137 ± 1 | 1131 ± 1 | 1772.9 ± 6 | 1769.3 ± 6 | 1763.5 ± 6 | 1755.4 ± 6
x2 = 0.9024 | 1091 ± 1 | 1087 ± 1 | 1083 ± 1 | 1078 ± 1 | 1648.7 ± 6.1 | 1659.3 ± 6.1 | 1665.8 ± 6 | 1668.4 ± 6
